Each block holds one compound with its values, some of them ahead of it.
Legend:
[1] = aggregation on addition of dextran: turbidity at 800 nm; type: physicochemical; conditions: dextran
Method: The precipitation of the vesicles was dispersed again to be 5 wt %, and thereto dextran (molecular weight of 40000) was added as a colloid osmotic pressure controller. The stability of the dispersion was observed by determination of turbidity at 800 nm.
The stability of the MPDSPE-modified vesicle was evaluated by adding, to the above dispersion, dextran (molecular weight: 4000) which is a colloid osmotic pressure controller, and measuring the turbidity from the absorbance at 800 nm. […] This proves the aggregation inhibition effect of the MPDSPE of the vesicle stabilizer of the present invention.
The resulting dispersion was treated with a microfluidizer at 2500 psi at 4° C. for 15 minutes to obtain a dispersion of SDSPE-modified vesicles having average particle diameter of 350±95 nm. This dispersion was centrifuged (100000 G, 30 minutes) to obtain a precipitate of vesicles. The precipitate was dispersed again into a solution to be 5% by weight. Occurrence of aggregation of the vesicles was tested by adding dextran (molecular weight 40000) to the dispersion and measuring the turbidity change at 800 nm. […] Therefrom the modification was confirmed to be effective to inhibition of aggregation caused by dextran.
5.0 g of a powdery lipid mixture containing the above STEC (DPPC:cholesterol:stearic acid:STEC=7:7:2:2 in molar ratio) was dispersed in 100 ml of saline, and the dispersion was stirred at 4° C. for 24 hours. The resulting dispersion was treated with a microfluidizer at 2500 psi at 4° C. for 15 minutes. This dispersion was centrifuged (10000 G, 30 minutes) to obtain precipitate of STEC-modified vesicles. The precipitate was dispersed again in to saline to be 5 wt %. The stability of the vesicles was evaluated by adding 2.5 wt % solution of dextran (molecular weight 40000) to the above vesicle layer and measuring the turbidity change at 800 nm. The STEC-modified vesicles caused the turbidity increase of 58% of that of the unmodified vesicles (DPPC:cholesterol:stearic acid=7:7:2 in molar ratio), thereby the inhibition effect of STEC, a vesicle stabilizer of the present invention being confirmed.

[2] = introduction ratio into mixed lipid vesicles; type: physicochemical
Method: (§1) The ratio of introduction of the stabilizer into the vesicles is determined by treating the dispersion of the vesicles by gel filtration or ultracentrifuge to remove the superfluous stabilizer which has not been introduced into the vesicles, and quantitatively determining saccharide in respective fractions by a phenol-sulfuric acid method. The stabilizer of the present invention, when employed in an amount of from 2 to 10 mol %, is introduced into the vesicles in a ratio of 90% or more.
The effect of the LPMS of the present invention on stabilization of vesicles was evaluated as follows. A powdery lipid mixture containing LPMS was prepared from dimyristoyl phosphatidylcholine, cholesterol, myristic acid, and LPMS (in molar ratio of 7:7:2:0.3) was prepared by freeze-drying. 100 ml of saline was added to 10 g of the above powdery lipid mixture, and the mixture was stirred at 4° C. for 24 hours to prepare a liquid dispersion. […] The introduction ratio of the LPMS was 85% according to saccharide determination of the supernatant liquid after centrifugation.
500 mg of a powdery lipid mixture containing MPDSG of the present invention was prepared from DPPC, cholesterol, distearyl phosphatidic acid, and MPDSG (in molar ratio of 10:9:0.9:0.5) was prepared by freeze-drying from benzene. […]

[3] = particle diameter of modified vesicles; type: physicochemical
[4] = turbidity increase of copolymerized vesicle dispersion, 4 °C for 24 hours; type: physicochemical; conditions: before fivefold dilution
[5] = introduction ratio of ODM into DODPC vesicles; type: physicochemical
Method: Polymerizable 2,4-octadecadienyl-0-α(β)-maltose (hereinafter referred to as "ODM") was prepared from maltose and 2,4-octadecadienol according to the method shown in Example 11. A solution of 2.0 mg of this ODM in 1 ml of chloroform was mixed with a solution of 200 mg of di(2,4-octadecadienoyl)phosphatidylcholine (hereinafter referred to as "DODPC") as a polymerizable lipid in 5 ml of chloroform. The mixture was evaporated by a rotary evaporator to form a thin film on a wall of an eggplant-shape flask. 20 ml of pure water was added thereto, and agitated with glass beads by a vortex mixer. The resulting ODM-modified vesicle dispersion was treated by an extruder to prepare a dispersion of nearly uniform particle diameters. The vesicle dispersion was irradiated with γ-ray to copolymerize the ODM and the polymerizable lipid, DODPC. A portion of the irradiated dispersion was diluted fivefold with pure water and was left standing at 4° C. for 24 hours. The introduction ratio of ODM was measured by centrifuging the diluted and undiluted dispersions (300000 G, 60 minutes) respectively and determining the ODM in the supernatant by a phenol-sulfuric acid method.

[6] = change of turbidity at 500 nm with time on standing at room temperature (FIG. 1); type: physicochemical; conditions: 0.5% by weight
Method: The dispersion stability of the vesicle is evaluated by measuring the change with time of the absorbance (turbidity) with a spectrophotometer at a wavelength of 500 to 800 nm of the gel-filtered dispersion which is left standing at room temperature. Otherwise, the dispersion stability of the vesicle can be measured by the viscosity of the vesicle dispersion with a rotating viscometer, or microscopic observation by electron microscopy.
The ability of the oligosaccharide lipid of the present invention, namely of MPDSG, for stabilizing a vesicle was evaluated as follows. 3 mg of MPDSG and 100 mg of dipalmitoyl phosphatidylcholine (hereinafter referred to "DPPC") as a phospholipid were dissolved in methanol. The methanol was evaporated by use of a rotary evaporator to form a thin film on the inside wall of an eggplant shape flask. Thereto, 5 ml of pure water and several glass beads were added, and the content of the flask was agitated at 60° C. by means of a vortex mixer to form a whitish turbid liquid. This whitish turbid liquid was treated with an extruder. […]
(§2) The stability of the vesicle dispersion which had been passed through the 0.05 μm filter was evaluated by measuring the change of absorbance (turbidity) at 500 nm with time on standing at room temperature by means of a UV-visible light spectrophotometer.

[7] = rat, in vivo
[8] = system: washed human RBC (red blood cell); conditions: washed red blood cells, 2 h, pH 7.4
[9] = viscosity of vesicle dispersion on addition of calcium ion (rotating viscometer); type: physicochemical; conditions: 5 mM calcium chloride
Method: The stability of the vesicles was evaluated as below. The precipitate of the vesicles prepared by centrifuge was dispersed again into saline by a vortex mixer. To this sample, calcium chloride (as calcium ion) was added to be 5 mM, and the viscosity of the dispersion was measured with a rotating viscometer (Vismetron VS-AK). The viscosity of 5 cp was not changed by addition of the calcium ion.
To this dispersion, calcium chloride (as calcium ion) was added to be 5 mM, and the viscosity of the dispersion was measured with a rotating viscometer (Vismetron VS-AK).
To this dispersion, calcium chloride (as calcium ion) was added to be 5 mM, and the viscosity of the dispersion was measured with a rotating viscometer (Vismetron VS-AK). The viscosity of 5 cp was not changed by addition of the calcium ion. On the contrary, the dispersion of the vesicles prepared from powdery lipid mixture not containing DACOA (DPPC:cholesterol:distearylphosphatidic acid=10:9:0.9 in molar ratio) aggregated immediately on addition of calcium ion because of negative charge on the surface of the vesicle, causing the viscosity rise up to 11 cp.
The stability of the dispersion of the DOLG-modified vesicles having adjusted particle diameters was evaluated by addition of 5 mM calcium chloride and observing the viscosity change. The viscosity was measured at 37° C. by a rotating viscometer. […] On the contrary, a dispersion of unmodified vesicles prepared from a powdery lipid mixture containing no DOLG (DPPC:cholesterol:stearic acid=7:7:2 in molar ratio) caused immediate aggregation of the vesicles on addition of calcium ion in the same manner as above because of the negative charge on the surface of the vesicle, and the viscosity increased up to 11 cp. Accordingly, the sufficient effect of the DOLG, a vesicle stabilizer of the present invention, was confirmed in inhibiting the aggregation of vesicles by calcium ion.

[10] = introduction ratio into the vesicle (phenol-sulfuric acid method); type: physicochemical; conditions: 3 mg MPDSG per 100 mg DPPC; dispersion diluted to 0.5% by weight, gel filtration
Method: as §1, §2
2.4 mg of DOMG prepared in the same manner as in Example 11 was dissolved in 1 ml of chloroform. This solution was mixed with a solution of 100 mg of DPPC in 5 ml of chloroform, thereby DOMG being 2 mol % of DPPC. The solution mixture was evaporated by means of an evaporator to form a thin film on the inside wall of an eggplant-shape flask. Then 10 ml of pure water was added thereto so as to obtain a concentration of 1.0% by weight of the vesicles. The mixture was stirred with glass beads by means of a vortex mixer, and subsequently treated by an extruder to prepare a dispersion of DOMG-modified DPPC vesicles having controlled diameters of particles. A portion of the resulting dispersion was diluted to a fivefold volume with pure water to prepare a dispersion having vesicle concentration of 0.2% by weight.
The two dispersions of the DOMG-modified vesicles having concentrations of 1.0% by weight and 0.2% by weight were left standing at 4° C. for 24 hours, and were ultracentrifuged (300000 G, 60 minutes). The free DOMG in the supernatant was determined by a phenol-sulfuric acid method, and therefrom the ratio of introduction DOMG to the vesicles was calculated.
As the results, the introduction ratios were 94.3%, and 77.0% respectively at the vesicle concentrations of 1.0% by weight and 0.2% by weight. The results are shown in Table 4 together with the results of Comparative Examples 6 and 7 described later in which an oligosaccharide derivative was employed.

[11] = mixed lipid vesicles, microfluidizer

turbidity change on addition of dextran (in words) [1]: did not give turbidity increase
introduction ratio ([2]; dimyristoyl phosphatidylcholine:cholesterol:myristic acid:LPMS 7:7:2:0.3): 85%
average diameter [3, 11]: 300±130 nm
Compound: CCCCCCCCCCCCCCCCCCOC1O[C@H](CO)[C@@H](O)[C@H](O[C@@H]2O[C@H](CO)[C@@H](O)[C@H](O[C@@H]3O[C@H](CO)[C@@H](O)[C@H](O[C@@H]4O[C@H](CO)[C@@H](O)[C@H](O[C@@H]5O[C@H](CO)[C@@H](O)[C@H](O)[C@H]5O)[C@H]4O)[C@H]3O)[C@H]2O)[C@H]1O (stereo partly shown) [LPMS, laminaripentaose monostearyl ether]

turbidity change on addition of dextran (in words) [1]: did not show turbidity rise
average diameter [3, 11]: 320±115 nm
Compound: CCCCCCCCCCCCCCCCCC(=O)OCC(COP(=O)(O)OCCNC(=O)[C@H](O)[C@@H](O)[C@H](O[C@H]1O[C@H](CO)[C@@H](O[C@H]2O[C@H](CO)[C@@H](O[C@H]3O[C@H](CO)[C@@H](O[C@H]4O[C@H](CO)[C@@H](O)[C@H](O)[C@H]4O)[C@H](O)[C@H]3O)[C@H](O)[C@H]2O)[C@H](O)[C@H]1O)[C@H](O)CO)OC(=O)CCCCCCCCCCCCCCCCC (stereo partly shown) [MPDSPE, Maltopentaose distearoyl phosphatidyl ethanolamide]

turbidity increase relative to unmodified vesicles [4]: 10.9%
introduction ratio of ODM ([5]; copolymerized by γ-ray, both diluted (fivefold) and undiluted dispersions): 94.2%
introduction ratio of ODM ([5]; not copolymerized, after fivefold dilution): 66.9%
introduction ratio of ODM ([5]; not copolymerized, before fivefold dilution): 93.8%
Compound: CCCCCCCCCCCCCC=CC=CCOC1O[C@H](CO)[C@@H](O[C@H]2O[C@H](CO)[C@@H](O)[C@H](O)[C@H]2O)[C@H](O)[C@H]1O (stereo partly drawn) [ODM, 2,4-octadecadienyl-0-α(β)-maltose]

turbidity change on addition of dextran (in words) [1]: little rise of turbidity
average diameter [3, 11]: 350±95 nm
Compound: CCCCCCCCCCCCCCCCCC(=O)OCC(COP(=O)(O)OCCNC(=O)[C@H](O)[C@@H](O)[C@H](O[C@@H]1O[C@H](CO)[C@@H](O)[C@H](O)[C@H]1O)[C@H](O)CO)OC(=O)CCCCCCCCCCCCCCCCC (stereo partly shown) [SDSPE, cellobiose distearoylphosphatidyl ethanolamine]

turbidity rise in comparison with that of the unmodified vesicle [6]: about 7%
average half-life from the blood stream [7]: 38 h
inhibition of aggregation of vesicles by calcium ion (in words) [9]: inhibited nearly completely
viscosity change on addition of calcium ion (in words) [9]: not changed
viscosity of the dispersion with calcium ion ([9]; Vismetron VS-AK): 5 cp
introduction ratio ([2]; DPPC:cholesterol:distearyl phosphatidic acid:MPDSG 10:9:0.9:0.5): 98%
average diameter ([3]; DPPC vesicle, 0.05 μm extruder, particle size analyzer): 57±12 nm
average diameter ([3]; DPPC vesicle, 0.05 μm extruder, transmission electron microscope with negative stain): 55±10 nm
average particle diameter ([3]; hemoglobin-enclosing vesicles after 0.2 μm extrusion and gel filtration): 203±50 nm
average diameter ([3]; hemoglobin-enclosing vesicles, microfluidizer, before 0.2 μm extrusion): 300±98 nm
average particle diameter ([3]; mixed lipid vesicles, 0.2 μm filter by extruder): 200 nm
introduction ratio into the vesicle [10]: 99%
Compound: maltopentaose distearyl glycerol [MPDSG]
inhibition of aggregation (in words) [6]: little turbidity increase later, showing the inhibition of the aggregation
hemolysis [8]: 5%
